Results from patent publication US20060110474A1, “Rubrofusarin glycoside-containing composition” (Suntory Limited, priority 2002, published 2006).
Entries after “also recorded” stand apart in the source; their conditions may differ.

Legend:
Assay type in all cases: cell-based
[1] = test system: human hepatoma HepG2 cells; test: Synergistic effect with precursor L-cystine on intracellular glutathione level (L-cystine free D-MEM); details: 40 hours, FIG. 4
Protocol: (§1) The activity to increase intracellular glutathione level was determined by use of human hepatoma HepG2 cells. More specifically, HepG2 cells were cultured in RPMI1640 medium and added to a 96-well microplate at a density of 2.5×10^4 cells (100 μl) per well. After the HepG2 cells settled on the wall, 25 μl of each of the aforementioned samples was added and the mixture was cultured in a CO2 incubator for 48 hours. Thereafter, a culture solution was removed and the cells were washed once with phosphate buffered saline (PBS), 25 μl of a PBS solution containing 0.25 mM monochlorobimane was added and the mixture was allowed to stand in the CO2 incubator (37° C.) for 45 minutes. After the mixture was returned to room temperature, 75 μl of distilled water was added to the mixture to disperse it. The fluorescent intensity of the fluorescent substance produced by the reaction between Monochlorobimane and glutathione was measured at 355 nm/460 nm to observe a change in intracellular glutathione content.
Using human hepatoma HepG2 cells, the synergistic effect between rubrofusarin glycoside having the intracellular glutathione increasing activity and a precursor for synthesizing glutathione in vivo was investigated. […] Thereafter, intracellular glutathione levels were measured. […]

[2] = test system: human hepatoma HepG2 cells; test: Intracellular glutathione level of HepG2 cells (monochlorobimane fluorescence)
Protocol: as §1
(§2) Using human hepatoma HepG2 cells, time-dependent induction effect of rubrofusarin glycoside upon intracellular glutathione level was investigated. The procedure was similar to that of Example 1. Briefly, HepG2 cells were dispensed at a density of 2.5×10^4 cells (100 μl) per well of a microplate and allowed to settle thereto, and then, 25 μl of an evaluation sample diluted to a predetermined concentration in RPMI1640 medium was added. The cells were cultured for 0, 6, 12, 24, and 48 hours. […]
(§3) Using human hepatoma HepG2 cells, dose dependency of the effect of rubrofusarin glycoside upon intracellular glutathione level was investigated. […] After culturing for an additional 48 hours, the intracellular glutathione level was measured to be compared with that of the cells containing no test-compound or that of the cells containing comparative compound, β-naphthoflavone (purchased from Nacalai-tesque) or silibinin (purchased from Sigma Chemical). […]

[3] = test system: human hepatoma HepG2 cells; test: Cytotoxicity seen in the in-vitro HepG2 cell evaluation system; details: HepG2, 48 hours, up to 20 μM, compared with β-naphthoflavone
Protocol: as §2, with “hours. As the evaluation sample, use was made of the concentrate (containing 10.2% (w/w) rubrofusarin gentiobioside) of the present invention prepared in accordance with the method shown in Example 4.” for “hours.”
as §3

[4] = test system: human hepatoma HepG2 cells; test: Protective effect against t-butyl hydroperoxide (rate of surviving cells, WST-1 staining); details: HepG2, 10 μM in terms of rubrofusarin gentiobioside for 48 hours, then t-BHP 0 to 1 mM for 3 hours; β-naphthoflavone 6 μM; FIG. 3
Protocol: The method was similar to that in Example 5. Briefly, HepG2 cells were dispensed at a density of 2.5×10^4 cells (100 μl) per well of a microplate and allowed to settle thereto, and then, 25 μl of the concentrate diluted in RPMI1640 medium to a final concentration of 10 μM in terms of rubrofusarin gentiobioside was added. After culturing was performed for a further 48 hours, a peroxide, t-butyl hydroperoxide (t-BHP) was added so as to give a final concentration of 0 to 1 mM. The rate of surviving cells after 3 hours relative to that of the cells containing no test compound was compared with those containing comparative compounds, β-naphthoflavone (6 μM) and silibinin (10 μM). The rate of surviving cells was checked by WST-1 staining and calculated based on a control not containing t-BHP as being 100%.

SMILES: N[C@@H](CSSC[C@H](N)C(=O)O)C(=O)O [L-cystine]
- intracellular glutathione level with L-cystine alone ([1]; L-cystine at predetermined concentrations): increased as the concentration of L-cystine added increased

SMILES: COc1cc(O[C@@H]2O[C@H](CO[C@@H]3O[C@H](CO)[C@@H](O)[C@H](O)[C@H]3O)[C@@H](O)[C@H](O)[C@H]2O)c2c(O)c3c(=O)cc(C)oc3cc2c1 [rubrofusarin glycoside, rubrofusarin 6-O-β-gentiobioside]
- activity to increase intracellular glutathione level (HPLC fraction) ([2]; HepG2, 48 hours culture, serial two-fold dilution, 4 dilution stages): dose dependent and strong
- glutathione increasing activity, dose dependency ([2]; HepG2, 48 hours, final concentration 0 to 20 μM in terms of rubrofusarin gentiobioside, FIG. 2): increases in a dose-dependent manner; also recorded: equivalent to that of β-naphthoflavone
- intracellular glutathione level, time course ([2]; HepG2, 0, 6, 12, 24, 48 hours, 1.25, 2.5, 5.0 μM in terms of rubrofusarin gentiobioside, relative to negative control = 100%, FIG. 1): increases in a time-dependent manner
- cytotoxicity in a high-concentration range [3]: lower
- protective effect against t-BHP (rate of surviving cells) [4]: protecting HepG2 cells; also recorded: somewhat lower than that of β-naphthoflavone
- intracellular glutathione level in co-existence of L-cystine ([1]; 10 μM rubrofusarin glycoside plus L-cystine): synergistically contribute to an increase; also recorded: acted synergistically
